The assay deals with HCV RNA-dependent RNA polymerase NS5B (Δ21) (Hepatitis C virus genotype 1b, UniProt P26663). Kind of assay: Assay for HCV RNA-dependent RNA polymerase activity (SPA, [3H]-GTP incorporation). The class given is biochemical. As to conditions: read-out: Δ21 Activity (IC50 μM); 50 nM NS5B (Δ21), class symbols. How it is done: Inhibitory activity of the present compounds against HCV RNA-dependent RNA polymerase was assayed according to the methods disclosed in United States Patent Application US2004/038993, content of which is incorporated herein by reference; and those described in Ferrari, E.; Wright-Minogue, J.; Fang, J. W. S.; Baroudy, B. M.; Lau, J. Y. N.; Hong, Z. J. Virol. 1999, 73, 1649.
Briefly, 50 μl reactions containing 20 mM HEPES (pH 7.3), 7.5 mM DTT, 20 units/ml RNasIN, 0.5 μg/ml biotinylated oligoG12, 5 μg/ml polyC, 5 μM GTP, 20 μCi/ml [^3H]-GTP, 10 mM MgCl2, 60 mM NaCl, 100 μg/ml BSA, and 50 nM NS5B (Δ21) were incubated at room temperature for three hours in 96-well plates with or without test compounds. Assay was terminated by the addition of 50 μl 10 mg/ml streptavidin-coated SPA beads supplemented with 100 mM EDTA, and the incorporation of labeled GTP determined by a TopCount Scintillation Counter. IC50 values were calculated from single experiments using 11 serial 2-fold dilutions (0.05-50 μM), and data were considered reliable only when the IC50 value of a positive internal control was within standard deviation range.

As usually defined, the IC50 is the point on the concentration scale where inhibition reaches its midpoint.

HCV RNA-dependent RNA polymerase NS5B (Δ21), sequence (P26663 2420-2989, stated change not applied): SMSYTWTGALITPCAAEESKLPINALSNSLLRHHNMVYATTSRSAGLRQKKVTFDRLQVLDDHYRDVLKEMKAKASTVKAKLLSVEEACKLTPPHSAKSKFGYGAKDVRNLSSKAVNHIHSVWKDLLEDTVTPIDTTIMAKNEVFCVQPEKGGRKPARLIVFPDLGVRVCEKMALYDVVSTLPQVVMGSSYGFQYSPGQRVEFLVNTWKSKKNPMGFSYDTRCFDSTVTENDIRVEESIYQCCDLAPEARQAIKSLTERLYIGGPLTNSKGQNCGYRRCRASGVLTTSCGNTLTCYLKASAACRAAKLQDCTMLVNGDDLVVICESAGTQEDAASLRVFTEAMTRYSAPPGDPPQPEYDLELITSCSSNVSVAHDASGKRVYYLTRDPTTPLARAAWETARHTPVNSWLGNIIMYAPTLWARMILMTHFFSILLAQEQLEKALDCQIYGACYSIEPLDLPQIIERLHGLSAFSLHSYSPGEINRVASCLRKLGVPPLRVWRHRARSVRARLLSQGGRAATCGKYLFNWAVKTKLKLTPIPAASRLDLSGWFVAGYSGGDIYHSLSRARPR

In the case of `O=C(Cn1nc(C(=O)NCc2cccs2)cc1C(=O)N[C@H]1CCCC[C@@H]1OCc1ccccc1)N[C@H]1CCCC[C@@H]1OCc1ccccc1` [Compound 92], the IC50 lay within 0.1 to 1 µM.

In the case of `CCCCOCCCNC(=O)c1cc(C(=O)N[C@H]2CCCC[C@@H]2OCc2ccccc2)n(CC(=O)N[C@H]2CCCC[C@@H]2OCc2ccccc2)n1` [Compound 93], the IC50 was 0.1 to 1 µM.

On to `O=C(Cn1nc(C(=O)NCCc2cccc(Cl)c2)cc1C(=O)N[C@H]1CCCC[C@@H]1OCc1ccccc1)N[C@H]1CCCC[C@@H]1OCc1ccccc1` [Compound 94], for which the IC50 fell in the range of 0.1 to 1 µM.

Consider `CC(NC(=O)c1cc(C(=O)N[C@H]2CCCC[C@@H]2OCc2ccccc2)n(CC(=O)N[C@H]2CCCC[C@@H]2OCc2ccccc2)n1)c1ccccc1` (some centres unmarked) [Compound 95], for which the IC50 lay in the range of 0.1 to 1 µM.

`O=C(Cn1nc(NS(=O)(=O)c2cc(Cl)ccc2Cl)cc1C(=O)N[C@H]1CCCC[C@@H]1OCc1ccccc1)N[C@H]1CCCC[C@@H]1OCc1ccccc1` [Compound 96]: the IC50 was in the range of 0.1 to 1 µM.

`COc1ccc(OC)c(S(=O)(=O)Nc2cc(C(=O)N[C@H]3CCCC[C@@H]3OCc3ccccc3)n(CC(=O)N[C@H]3CCCC[C@@H]3OCc3ccccc3)n2)c1` [Compound 97]: the IC50 fell in the range of 0.1 to 1 µM.

`Cc1ccc(OCc2ccccc2)c(NC(=O)c2cc(C(N)=O)nn2CC(=O)N[C@H]2CCCC[C@@H]2OCc2ccccc2)c1` [Compound 98]: the IC50 was in the range of 0.1 to 1 µM.

In the case of `CCOC(=O)c1cc(C(=O)N[C@H]2CCCC[C@@H]2OCc2ccccc2)n(CC(=O)Nc2cc(C)ccc2OCC2CCCC2)n1` [Compound 99], the IC50 was 0.1 to 1 µM.

Take `O=C(Cn1nc(C(=O)NCC2CC2)cc1C(=O)N[C@H]1CCCC[C@@H]1OCc1ccccc1)N[C@H]1CCCC[C@@H]1OCc1ccccc1` [Compound 100]: the IC50 lay within 0.1 to 1 µM.

Regarding `CC(CCc1ccccc1)NC(=O)c1cc(C(=O)N[C@H]2CCCC[C@@H]2OCc2ccccc2)n(CC(=O)N[C@H]2CCCC[C@@H]2OCc2ccccc2)n1` (some centres unmarked) [Compound 101], the IC50 was in the range of 0.1 to 1 µM.

`O=C(Cn1nc(NC(=O)Nc2ccccc2)cc1C(=O)N[C@H]1CCCC[C@@H]1OCc1ccccc1)N[C@H]1CCCC[C@@H]1OCc1ccccc1` [Compound 102]: the IC50 was 0.1 to 1 µM.

In the case of `O=C(Cn1nc(C(=O)NCCc2ccccc2Cl)cc1C(=O)N[C@H]1CCCC[C@@H]1OCc1ccccc1)N[C@H]1CCCC[C@@H]1OCc1ccccc1` [Compound 103], the IC50 fell in the range of 0.1 to 1 µM.

On to `O=C(Cn1nc(C(=O)NCCCc2ccccc2)cc1C(=O)N[C@H]1CCCC[C@@H]1OCc1ccccc1)N[C@H]1CCCC[C@@H]1OCc1ccccc1` [Compound 104], for which the IC50 lay in the range of 0.1 to 1 µM.

On to `CC(C)(C)OC(=O)CNC(=O)c1cc(C(=O)N[C@H]2CCCC[C@@H]2OCc2ccccc2)n(CC(=O)N[C@H]2CCCC[C@@H]2OCc2ccccc2)n1` [Compound 105], for which the IC50 fell in the range of 0.1 to 1 µM.

For the compound `Cc1ccc(S(=O)(=O)Nc2cc(C(=O)N[C@H]3CCCC[C@@H]3OCc3ccccc3)n(CC(=O)N[C@H]3CCCC[C@@H]3OCc3ccccc3)n2)cc1` [Compound 106], the IC50 lay in the range of 0.1 to 1 µM.

Regarding `O=C(Cn1nc(C(=O)NC2CCc3ccccc32)cc1C(=O)N[C@H]1CCCC[C@@H]1OCc1ccccc1)N[C@H]1CCCC[C@@H]1OCc1ccccc1` (some centres unmarked) [Compound 107], the IC50 lay in the range of 0.1 to 1 µM.

On to `O=C(Cn1nc(NS(=O)(=O)c2cc(Cl)cc(Cl)c2O)cc1C(=O)N[C@H]1CCCC[C@@H]1OCc1ccccc1)N[C@H]1CCCC[C@@H]1OCc1ccccc1` [Compound 108], for which the IC50 is 0.1 to 1 µM.

Turning to `CON(C)C(=O)c1cc(C(=O)N[C@H]2CCCC[C@@H]2OCc2ccccc2)n(CC(=O)N[C@H]2CCCC[C@@H]2OCc2ccccc2)n1` [Compound 109], the IC50 is 0.1 to 1 µM.

With `CCCCNC(=O)c1cc(C(=O)N[C@H]2CCCC[C@@H]2OCc2ccccc2)n(CC(=O)N[C@H]2CCCC[C@@H]2OCc2ccccc2)n1` [Compound 110], the IC50 is 0.1 to 1 µM.

For `C=CCNC(=O)c1cc(C(=O)N[C@H]2CCCC[C@@H]2OCc2ccccc2)n(CC(=O)N[C@H]2CCCC[C@@H]2OCc2ccccc2)n1` [Compound 111], the IC50 lay in the range of 0.1 to 1 µM.

Take `Cc1nn(C)c(Cl)c1S(=O)(=O)Nc1cc(C(=O)N[C@H]2CCCC[C@@H]2OCc2ccccc2)n(CC(=O)N[C@H]2CCCC[C@@H]2OCc2ccccc2)n1` [Compound 112]: the IC50 was in the range of 0.1 to 1 µM.

For the compound `CN(C)c1cccc2c(S(=O)(=O)Nc3cc(C(=O)N[C@H]4CCCC[C@@H]4OCc4ccccc4)n(CC(=O)N[C@H]4CCCC[C@@H]4OCc4ccccc4)n3)cccc12` [Compound 113], the IC50 lay in the range of 0.1 to 1 µM.

For the compound `Cc1ccc(OCC(C)(C)C)c(NC(=O)c2cc(C(=O)O)nn2CC(=O)N[C@H]2CCCC[C@@H]2OCc2ccccc2)c1` [Compound 114], the IC50 was in the range of 0.1 to 1 µM.

As to `O=C(Cn1nc(C(=O)Nc2nnn[nH]2)nc1C(=O)N[C@H]1CCCC[C@@H]1OCc1ccccc1)N[C@H]1CCCC[C@@H]1OCc1ccccc1` [Compound 115], the IC50 lay within 0.1 to 1 µM.

With `CC(C)(C)ONC(=O)c1cc(C(=O)N[C@H]2CCCC[C@@H]2OCc2ccccc2)n(CC(=O)N[C@H]2CCCC[C@@H]2OCc2ccccc2)n1` [Compound 116], the IC50 was 0.1 to 1 µM.

Turning to `CC(CNC(=O)c1cc(C(=O)N[C@H]2CCCC[C@@H]2OCc2ccccc2)n(CC(=O)N[C@H]2CCCC[C@@H]2OCc2ccccc2)n1)c1ccccc1` (some centres unmarked) [Compound 117], the IC50 fell in the range of 0.1 to 1 µM.

With `O=C(Cn1nc(NC(=O)NC2CCCCC2)cc1C(=O)N[C@H]1CCCC[C@@H]1OCc1ccccc1)N[C@H]1CCCC[C@@H]1OCc1ccccc1` [Compound 118], the IC50 lay within 0.1 to 1 µM.

As to `O=C(Cn1nc(C(=O)N2c3ccccc3CCc3ccccc32)cc1C(=O)N[C@H]1CCCC[C@@H]1OCc1ccccc1)N[C@H]1CCCC[C@@H]1OCc1ccccc1` [Compound 119], the 50% inhibitory concentration (IC50) was 0.1 to 1 µM.

Consider `O=C(Cn1nc(C(=O)O)cc1C(=O)N[C@H]1CCCC[C@@H]1NCc1ccccc1)N[C@H]1CCCC[C@@H]1OCc1ccccc1` [Compound 120], for which the IC50 lay in the range of 0.1 to 1 µM.

As for `O=C(Cn1nc(NC(=O)NCc2ccccc2)cc1C(=O)N[C@H]1CCCC[C@@H]1OCc1ccccc1)N[C@H]1CCCC[C@@H]1OCc1ccccc1` [Compound 121], the IC50 fell in the range of 0.1 to 1 µM.

Turning to `O=C(Cn1nc(C(=O)NC2CC2)cc1C(=O)N[C@H]1CCCC[C@@H]1OCc1ccccc1)N[C@H]1CCCC[C@@H]1OCc1ccccc1` [Compound 122], the IC50 is 0.1 to 1 µM.

Turning to `CN(C(=O)Cn1nc(C(=O)O)cc1C(=O)N[C@H]1CCCC[C@@H]1OCc1ccccc1)[C@H]1CCCC[C@@H]1OCc1ccccc1` [Compound 123], the IC50 is 0.1 to 1 µM.

Take `CCCCNC(=O)Nc1cc(C(=O)N[C@H]2CCCC[C@@H]2OCc2ccccc2)n(CC(=O)N[C@H]2CCCC[C@@H]2OCc2ccccc2)n1` [Compound 124]: the IC50 lay in the range of 0.1 to 1 µM.

In the case of `Cc1ccc(OCC2CCCCC2)c(NC(=O)c2cc(C(=O)Nc3nnn[nH]3)nn2CC(=O)N[C@H]2CCCC[C@@H]2OCc2ccccc2)c1` [Compound 125], the IC50 is 0.1 to 1 µM.

Consider `CC(=O)c1cc(C(=O)N[C@H]2CCCC[C@@H]2OCc2ccccc2)n(CC(=O)N[C@H]2CCCC[C@@H]2OCc2ccccc2)n1` [Compound 126], for which the IC50 was 0.1 to 1 µM.

On to `O=C(Cn1nc(C(=O)NCc2ccc(C(F)(F)F)cc2)cc1C(=O)N[C@H]1CCCC[C@@H]1OCc1ccccc1)N[C@H]1CCCC[C@@H]1OCc1ccccc1` [Compound 127], for which the IC50 lay in the range of 0.1 to 1 µM.

For `O=C(Cn1nc(C(=O)NC2CCCC2)cc1C(=O)N[C@H]1CCCC[C@@H]1OCc1ccccc1)N[C@H]1CCCC[C@@H]1OCc1ccccc1` [Compound 128], the IC50 is 0.1 to 1 µM.

As to `O=C(Cn1nc(C(=O)NCCc2ccc(Cl)cc2)cc1C(=O)N[C@H]1CCCC[C@@H]1OCc1ccccc1)N[C@H]1CCCC[C@@H]1OCc1ccccc1` [Compound 129], the IC50 was in the range of 0.1 to 1 µM.

On to `CN(Cc1cccc2ccccc12)C(=O)c1cc(C(=O)N[C@H]2CCCC[C@@H]2OCc2ccccc2)n(CC(=O)N[C@H]2CCCC[C@@H]2OCc2ccccc2)n1` [Compound 130], for which the IC50 was 0.1 to 1 µM.

Turning to `O=C(Cn1nc(C(=O)NCCc2ccccc2)cc1C(=O)N[C@H]1CCCC[C@@H]1OCc1ccccc1)N[C@H]1CCCC[C@@H]1OCc1ccccc1` [Compound 131], the IC50 was in the range of 0.1 to 1 µM.

Take `O=C(Cn1nc(C(=O)O)cc1C(=O)N[C@@H]1CCCC[C@@H]1OCc1ccccc1)N[C@H]1CCCC[C@H]1OCc1ccccc1` [Compound 132]: the IC50 was 0.1 to 1 µM.

On to `CN(C(=O)c1cc(C(=O)O)nn1CC(=O)N[C@H]1CCCC[C@@H]1OCc1ccccc1)[C@H]1CCCC[C@@H]1OCc1ccccc1` [Compound 133], for which the IC50 was in the range of 0.1 to 1 µM.

As to `O=C(Cn1nccc1C(=O)N[C@H]1CCCC[C@@H]1OCc1ccccc1)N[C@H]1CCCC[C@@H]1OCc1ccccc1` [Compound 134], the IC50 fell in the range of 0.1 to 1 µM.

Take `CNC(=O)Nc1cc(C(=O)N[C@H]2CCCC[C@@H]2OCc2ccccc2)n(CC(=O)N[C@H]2CCCC[C@@H]2OCc2ccccc2)n1` [Compound 135]: the IC50 was 0.1 to 1 µM.

For `CCOC(=O)c1cc(C(=O)N[C@H]2CCCC[C@@H]2OCc2ccccc2)n(CC(=O)Nc2ccccc2Oc2ccc(Cl)c(C)c2)n1` [Compound 136], the IC50 fell in the range of 0.1 to 1 µM.

Take `O=C(Cn1nc(C(=O)NCC2CCCCC2)cc1C(=O)N[C@H]1CCCC[C@@H]1OCc1ccccc1)N[C@H]1CCCC[C@@H]1OCc1ccccc1` [Compound 137]: the half-maximal inhibitory concentration (IC50) was in the range of 0.1 to 1 µM.

For the compound `O=C(Cn1nc(C(=O)NCc2ccncc2)cc1C(=O)N[C@H]1CCCC[C@@H]1OCc1ccccc1)N[C@H]1CCCC[C@@H]1OCc1ccccc1` [Compound 138], the IC50 fell in the range of 0.1 to 1 µM.

The values above are taken from patent US7425640B2, “Substituted 5-carboxyamide pyrazoles and [1,2,4]triazoles as antiviral agents” (priority 2004, dated 2008).
